Experimental findings from ChEMBL document CHEMBL5390221, “Synthesis and biological activity assay of novel camptothecin-peptidic conjugates based on PEPT1” (Bioorg Med Chem Lett, 2023) are described below.

The term IC50 denotes the concentration at which inhibition is half-maximal.

System in the first assay: not listed separately
In words: Cytotoxicity against human MPC2 cells assessed as inhibition of cell growth. The class given is functional, cell-based.
As to `CC[C@@]1(OC(=O)CNC(=O)CNC(C)=O)C(=O)OCc2c1cc1n(c2=O)Cc2cc3ccccc3nc2-1`, the IC50 worked out at 153 nM.

As for `CC[C@@]1(O)C(=O)OCc2c1cc1n(c2=O)Cc2cc3ccccc3nc2-1` [CAMPTOTHECIN], the IC50 is 83.7 nM.

As to `CCCCCC(=O)NCC(=O)O[C@]1(CC)C(=O)OCc2c1cc1n(c2=O)Cc2cc3ccccc3nc2-1`, the IC50 worked out at 79.4 nM.

On to `CC[C@@]1(OC(=O)CNC(=O)[C@H](CC(C)C)NC(=O)OC(C)(C)C)C(=O)OCc2c1cc1n(c2=O)Cc2cc3ccccc3nc2-1`, for which the IC50 turned out to be 125 nM.

On to `CC[C@H](C)[C@H](NC(=O)OC(C)(C)C)C(=O)NCC(=O)O[C@]1(CC)C(=O)OCc2c1cc1n(c2=O)Cc2cc3ccccc3nc2-1`, for which the IC50 came to 166 nM.

`CC[C@@]1(OC(=O)CNC(=O)[C@H](Cc2ccccc2)NC(=O)OC(C)(C)C)C(=O)OCc2c1cc1n(c2=O)Cc2cc3ccccc3nc2-1`: the IC50 came to 206 nM.

`CC[C@@]1(OC(=O)CNC(=O)C(C)C)C(=O)OCc2c1cc1n(c2=O)Cc2cc3ccccc3nc2-1`: the IC50 worked out at 97.1 nM.

On to `CC[C@@]1(OC(=O)CNC(=O)[C@@H](NC(=O)OC(C)(C)C)C(C)C)C(=O)OCc2c1cc1n(c2=O)Cc2cc3ccccc3nc2-1`, for which the IC50 was 204 nM.

The test system of a further assay is Hep 3B2. As to the kind of experiment: Cytotoxicity against human Hep3B cells assessed as inhibition of cell growth. The class given is functional, cell-based.
For the compound `CC[C@@]1(OC(=O)CNC(=O)CNC(C)=O)C(=O)OCc2c1cc1n(c2=O)Cc2cc3ccccc3nc2-1`, the IC50 stood at 767 nM.

Regarding `CC[C@@]1(O)C(=O)OCc2c1cc1n(c2=O)Cc2cc3ccccc3nc2-1` [CAMPTOTHECIN], the IC50 was found to be 434 nM.

Take `CCCCCC(=O)NCC(=O)O[C@]1(CC)C(=O)OCc2c1cc1n(c2=O)Cc2cc3ccccc3nc2-1`: the IC50 was determined as 1530 nM.

For `CC[C@@]1(OC(=O)CNC(=O)[C@H](CC(C)C)NC(=O)OC(C)(C)C)C(=O)OCc2c1cc1n(c2=O)Cc2cc3ccccc3nc2-1`, the IC50 is 1060 nM.

With `CC[C@H](C)[C@H](NC(=O)OC(C)(C)C)C(=O)NCC(=O)O[C@]1(CC)C(=O)OCc2c1cc1n(c2=O)Cc2cc3ccccc3nc2-1`, the half-inhibitory concentration (IC50) stood at 1770 nM.

`CC[C@@]1(OC(=O)CNC(=O)[C@H](Cc2ccccc2)NC(=O)OC(C)(C)C)C(=O)OCc2c1cc1n(c2=O)Cc2cc3ccccc3nc2-1`: the IC50 is 1120 nM.

Regarding `CC[C@@]1(OC(=O)CNC(=O)C(C)C)C(=O)OCc2c1cc1n(c2=O)Cc2cc3ccccc3nc2-1`, the IC50 is 969 nM.

As for `CC[C@@]1(OC(=O)CNC(=O)[C@@H](NC(=O)OC(C)(C)C)C(C)C)C(=O)OCc2c1cc1n(c2=O)Cc2cc3ccccc3nc2-1`, the IC50 worked out at 872 nM.

For the next assay, the system named is BXPC-3. In words: Cytotoxicity against human BXPC-3 cells assessed as inhibition of cell growth. It is filed as functional, cell-based.
With `CC[C@@]1(OC(=O)CNC(=O)CNC(C)=O)C(=O)OCc2c1cc1n(c2=O)Cc2cc3ccccc3nc2-1`, the IC50 was found to be 75.2 nM.

As to `CC[C@@]1(O)C(=O)OCc2c1cc1n(c2=O)Cc2cc3ccccc3nc2-1` [CAMPTOTHECIN], the IC50 stood at 62.5 nM.

For the compound `CCCCCC(=O)NCC(=O)O[C@]1(CC)C(=O)OCc2c1cc1n(c2=O)Cc2cc3ccccc3nc2-1`, the IC50 worked out at 105 nM.

As for `CC[C@@]1(OC(=O)CNC(=O)[C@H](CC(C)C)NC(=O)OC(C)(C)C)C(=O)OCc2c1cc1n(c2=O)Cc2cc3ccccc3nc2-1`, the IC50 stood at 162 nM.

In the case of `CC[C@H](C)[C@H](NC(=O)OC(C)(C)C)C(=O)NCC(=O)O[C@]1(CC)C(=O)OCc2c1cc1n(c2=O)Cc2cc3ccccc3nc2-1`, the IC50 was 222 nM.

`CC[C@@]1(OC(=O)CNC(=O)[C@H](Cc2ccccc2)NC(=O)OC(C)(C)C)C(=O)OCc2c1cc1n(c2=O)Cc2cc3ccccc3nc2-1`: the IC50 was 97.7 nM.

With `CC[C@@]1(OC(=O)CNC(=O)C(C)C)C(=O)OCc2c1cc1n(c2=O)Cc2cc3ccccc3nc2-1`, the IC50 was 167 nM.

Turning to `CC[C@@]1(OC(=O)CNC(=O)[C@@H](NC(=O)OC(C)(C)C)C(C)C)C(=O)OCc2c1cc1n(c2=O)Cc2cc3ccccc3nc2-1`, the IC50 came to 143 nM.

For a further assay, the system named is HepG2. As to the kind of experiment: Cytotoxicity against human HepG2 cells assessed as inhibition of cell growth. The class given is functional, cell-based.
As to `CC[C@@]1(OC(=O)CNC(=O)CNC(C)=O)C(=O)OCc2c1cc1n(c2=O)Cc2cc3ccccc3nc2-1`, the IC50 was 59.1 nM.

Consider `CC[C@@]1(O)C(=O)OCc2c1cc1n(c2=O)Cc2cc3ccccc3nc2-1` [CAMPTOTHECIN], for which the IC50 was 33.2 nM.

Turning to `CCCCCC(=O)NCC(=O)O[C@]1(CC)C(=O)OCc2c1cc1n(c2=O)Cc2cc3ccccc3nc2-1`, the IC50 was determined as 114 nM.

Take `CC[C@@]1(OC(=O)CNC(=O)[C@H](CC(C)C)NC(=O)OC(C)(C)C)C(=O)OCc2c1cc1n(c2=O)Cc2cc3ccccc3nc2-1`: the IC50 was determined as 87.6 nM.

In the case of `CC[C@H](C)[C@H](NC(=O)OC(C)(C)C)C(=O)NCC(=O)O[C@]1(CC)C(=O)OCc2c1cc1n(c2=O)Cc2cc3ccccc3nc2-1`, the IC50 was found to be 176 nM.

Take `CC[C@@]1(OC(=O)CNC(=O)[C@H](Cc2ccccc2)NC(=O)OC(C)(C)C)C(=O)OCc2c1cc1n(c2=O)Cc2cc3ccccc3nc2-1`: the IC50 was 74.7 nM.

Turning to `CC[C@@]1(OC(=O)CNC(=O)C(C)C)C(=O)OCc2c1cc1n(c2=O)Cc2cc3ccccc3nc2-1`, the half-maximal inhibitory concentration (IC50) is 129 nM.

As to `CC[C@@]1(OC(=O)CNC(=O)[C@@H](NC(=O)OC(C)(C)C)C(C)C)C(=O)OCc2c1cc1n(c2=O)Cc2cc3ccccc3nc2-1`, the IC50 was determined as 197 nM.

The next assay has as its system DU-145. As to the kind of experiment: Cytotoxicity against human DU-145 cells assessed as inhibition of cell growth. The class given is functional, cell-based.
Consider `CC[C@@]1(OC(=O)CNC(=O)CNC(C)=O)C(=O)OCc2c1cc1n(c2=O)Cc2cc3ccccc3nc2-1`, for which the IC50 is 76.1 nM.

Consider `CC[C@@]1(O)C(=O)OCc2c1cc1n(c2=O)Cc2cc3ccccc3nc2-1` [CAMPTOTHECIN], for which the IC50 amounted to 33.5 nM.

Take `CCCCCC(=O)NCC(=O)O[C@]1(CC)C(=O)OCc2c1cc1n(c2=O)Cc2cc3ccccc3nc2-1`: the IC50 was determined as 46.1 nM.

Consider `CC[C@@]1(OC(=O)CNC(=O)[C@H](CC(C)C)NC(=O)OC(C)(C)C)C(=O)OCc2c1cc1n(c2=O)Cc2cc3ccccc3nc2-1`, for which the 50% inhibitory concentration (IC50) is 44.6 nM.

`CC[C@H](C)[C@H](NC(=O)OC(C)(C)C)C(=O)NCC(=O)O[C@]1(CC)C(=O)OCc2c1cc1n(c2=O)Cc2cc3ccccc3nc2-1`: the IC50 is 97 nM.

With `CC[C@@]1(OC(=O)CNC(=O)[C@H](Cc2ccccc2)NC(=O)OC(C)(C)C)C(=O)OCc2c1cc1n(c2=O)Cc2cc3ccccc3nc2-1`, the IC50 worked out at 74.3 nM.

Turning to `CC[C@@]1(OC(=O)CNC(=O)C(C)C)C(=O)OCc2c1cc1n(c2=O)Cc2cc3ccccc3nc2-1`, the IC50 was found to be 55.4 nM.

For `CC[C@@]1(OC(=O)CNC(=O)[C@@H](NC(=O)OC(C)(C)C)C(C)C)C(=O)OCc2c1cc1n(c2=O)Cc2cc3ccccc3nc2-1`, the IC50 was 78.8 nM.

In another assay the test system is NCI-H520. As to the kind of experiment: Cytotoxicity against human NCI-H520 cells assessed as inhibition of cell growth. It is filed as functional, cell-based.
In the case of `CC[C@@]1(OC(=O)CNC(=O)CNC(C)=O)C(=O)OCc2c1cc1n(c2=O)Cc2cc3ccccc3nc2-1`, the IC50 was found to be 98.6 nM.

In the case of `CC[C@@]1(O)C(=O)OCc2c1cc1n(c2=O)Cc2cc3ccccc3nc2-1` [CAMPTOTHECIN], the IC50 was 25 nM.

In the case of `CCCCCC(=O)NCC(=O)O[C@]1(CC)C(=O)OCc2c1cc1n(c2=O)Cc2cc3ccccc3nc2-1`, the IC50 stood at 162 nM.

On to `CC[C@@]1(OC(=O)CNC(=O)[C@H](CC(C)C)NC(=O)OC(C)(C)C)C(=O)OCc2c1cc1n(c2=O)Cc2cc3ccccc3nc2-1`, for which the IC50 was found to be 34.8 nM.

Regarding `CC[C@H](C)[C@H](NC(=O)OC(C)(C)C)C(=O)NCC(=O)O[C@]1(CC)C(=O)OCc2c1cc1n(c2=O)Cc2cc3ccccc3nc2-1`, the IC50 stood at 58.5 nM.

As to `CC[C@@]1(OC(=O)CNC(=O)[C@H](Cc2ccccc2)NC(=O)OC(C)(C)C)C(=O)OCc2c1cc1n(c2=O)Cc2cc3ccccc3nc2-1`, the concentration for half-maximal inhibition (IC50) stood at 54.9 nM.

Regarding `CC[C@@]1(OC(=O)CNC(=O)C(C)C)C(=O)OCc2c1cc1n(c2=O)Cc2cc3ccccc3nc2-1`, the IC50 turned out to be 87.2 nM.

`CC[C@@]1(OC(=O)CNC(=O)[C@@H](NC(=O)OC(C)(C)C)C(C)C)C(=O)OCc2c1cc1n(c2=O)Cc2cc3ccccc3nc2-1`: the IC50 came out at 78.5 nM.
